Measurements published in patent US10301352B2, “Peptidomimetics with antiangiogenic activity” (UNIWERSYTET WARSZAWSKI, priority 2013, dated 2019).
Non-standard residues stand in square brackets, D forms with d. Residues, ends and D or L forms follow the SMILES beside them. No end group written: not given here. ξ: configuration not given here. hArg = N=C(N)NCCCC[C@H](N)C(=O)O; Dab = NCC[C@H](N)C(=O)O; Dap = NC[C@H](N)C(=O)O; ξP = O=C(O)C1CCCN1

Columns and labels:
NRP-1 = target: T1, NRP-1 (Rattus norvegicus, UniProt Q9QWJ9); test: VEGF165 displacement assay (inhibition of VEGF165 to NRP-1 binding); conditions: biotinylated VEGF165 1 nM; for inhibition at 0.03 µM: compound 0.03 μM; for inhibition at 0.1 µM: compound 0.1 μM; for inhibition at 0.3 µM: compound 0.3 μM; for inhibition at 1 µM: compound 1 μM
T1 construct: purchased R&D Systems
Procedure: Antiangiogenic properties were evaluated in vitro by measuring the inhibition of VEGF165 to NRP-1 binding. This test makes it possible to evaluate the % inhibition by the evaluated compound at a particular concentration.
The evaluation of the inhibitory effect of peptidomimetics were performed using an enzymatic method denoting the spectrophotometric displacement of the VEGF165 ligand from a bond with the specific receptor Neuropilin-1 by the evaluated compound. The studies were performed using polystyrene 96-well plates (Maxisorb, Nunc.).
To evaluate the biological inhibitory activity of selected molecules, the surfaces of flat bottom polystyrene wells of 96-wells plates (Maxisorb, Nunc,) was treated with 100 ul of 2 ug/ml anti-Fc IgG (Sigma-Aldrich, Saint Quentin Fallavier, France) in phosphate buffer saline (PBS, Sigma) overnight at 4° C. After washing and saturation of non-specific interactions with bovine serum albumin (BSA, Sigma), purified recombinant rat NRP1-Fc (20 ng/well, R&D Systems, Abingdon, UK) in 50 μl PBS-BSA 0.1%-tween-80 0.005% (PBT), […] VEGF165 (final concentration 1 nM, R&D Systems) diluted in PBT containing 2 μg/ml of heparin (Sigma) were successively added to a final volume of 150 μl. After an overnight incubation at 4° C., the wells were washed with PBT and treated with streptavidin-HRP polymer (Sigma) followed by washing and addition of ABTS substrate (Sigma). The DO measures were performed at 415 nm in reference to 470 nm after 15 minutes-2 h of reaction. […] In the control wells, the tested compound was absent but the respective concentration of DMSO was maintained. The heptapeptide A7R (ATWLPPR) was routinely used as a positive control for each plate.

[1] = In vitro peptidomimetic stability in human plasma (LC/MS); type: in vitro ADME; conditions: 37° C.; for half-life at 0.35 μmol/mL: human plasma from healthy donors, TFA salt, read-out: half-life time; for main enzymatic cleavage / degradation products: human plasma
Procedure: The stability of two peptidomimetics: Lys(hArg)-Dap-Pro-Arg and Lys(hArg-Pro-Dab-Arg were tested in plasma samples obtained from healthy donors. Peptidomimetics stock solutions were prepared by dissolving the TFA salt of proper peptidomimetic in water to obtain a final peptidomimetic concentration of 0.7 μmol/mL. In a Eppendorf tube, samples of 100 μL of human plasma were temperature-equilibrated at 37° C. for 15 minutes before adding 100 μL of peptidomimetic stock solution. Three tubes allowed the analysis for each time point. The initial time was recorded and at known time intervals (every 10 minutes from 0 sec to 3 h), 400 μL of solution of TCA in 99.8% ethanol (CTCA=0.2%) was added to the reaction solution for precipitation of the serum proteins. The cloudy reaction sample was shaken and then spun at 2000 g to pellet the precipitated serum proteins. The reaction supernatant was then analyzed by LC/MS analysis (using a RP-HPLC-ESI-MS system).

T1 sequence (Q9QWJ9 with tags, fused parts or gaps limits assumed): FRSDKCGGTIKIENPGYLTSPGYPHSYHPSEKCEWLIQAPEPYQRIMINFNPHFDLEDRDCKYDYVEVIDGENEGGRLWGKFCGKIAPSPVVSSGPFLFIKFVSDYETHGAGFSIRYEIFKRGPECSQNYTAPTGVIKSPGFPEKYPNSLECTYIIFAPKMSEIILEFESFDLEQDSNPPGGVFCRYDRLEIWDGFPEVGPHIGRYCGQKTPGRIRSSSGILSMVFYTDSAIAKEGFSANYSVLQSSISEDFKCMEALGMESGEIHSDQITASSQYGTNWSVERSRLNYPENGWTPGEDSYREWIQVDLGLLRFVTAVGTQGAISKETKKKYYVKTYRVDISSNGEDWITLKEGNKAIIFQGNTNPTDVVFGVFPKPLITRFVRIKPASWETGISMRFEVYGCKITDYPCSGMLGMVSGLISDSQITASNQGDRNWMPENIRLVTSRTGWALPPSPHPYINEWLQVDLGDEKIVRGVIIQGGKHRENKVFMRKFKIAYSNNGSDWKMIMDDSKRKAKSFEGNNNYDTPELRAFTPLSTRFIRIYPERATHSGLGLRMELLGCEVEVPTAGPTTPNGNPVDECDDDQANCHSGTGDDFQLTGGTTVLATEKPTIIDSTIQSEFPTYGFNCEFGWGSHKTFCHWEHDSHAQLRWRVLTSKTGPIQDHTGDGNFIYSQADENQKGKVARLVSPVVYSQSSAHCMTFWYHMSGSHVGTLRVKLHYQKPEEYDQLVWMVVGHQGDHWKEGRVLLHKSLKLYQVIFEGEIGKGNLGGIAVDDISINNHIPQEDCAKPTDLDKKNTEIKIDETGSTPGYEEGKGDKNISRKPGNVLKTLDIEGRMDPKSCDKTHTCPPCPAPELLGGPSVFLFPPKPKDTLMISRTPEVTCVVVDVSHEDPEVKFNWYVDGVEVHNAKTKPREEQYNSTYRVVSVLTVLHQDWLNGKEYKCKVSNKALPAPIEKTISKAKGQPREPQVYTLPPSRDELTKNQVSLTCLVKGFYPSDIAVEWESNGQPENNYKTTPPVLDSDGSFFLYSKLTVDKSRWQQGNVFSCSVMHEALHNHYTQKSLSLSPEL

inhibition at 0.03 µM (NRP-1) | inhibition at 0.1 µM (NRP-1) | inhibition at 0.3 µM (NRP-1) | inhibition at 1 µM (NRP-1) | inhibition at 3 µM (NRP-1; compound 3 μM) | inhibition at 10 µM (NRP-1; compound 10 μM) | inhibition at 30 µM (NRP-1; compound 30 μM) | half-life at 0.35 μmol/mL [1] | main enzymatic cleavage / degradation products [1] | Compound | % inhibition of VEGF165 to NRP-1 binding (NRP-1; compound 3 μM) | % inhibition of VEGF165 to NRP-1 binding (NRP-1; compound 10 μM) | % inhibition of VEGF165 to NRP-1 binding (NRP-1; compound 30 μM)
13.7% | 35.4% | 62.2% | 82.6% | 93.6% | 98.3% | 100% | 40 min | to Lys(hArg)-Pro and Dab-Arg | N=C(N)NCCCC[C@H](N)C(=O)NCCCC[C@H](N)C(=O)N1CCCC1C(=O)N[C@@H](CCN)C(=O)N[C@@H](CCCNC(=N)N)C(=O)O (stereo partly drawn) [compound 2, Lys(hArg)-Pro-Dab-Arg] (H-K(hArg)[ξP][Dab]R-OH) |  |  | 
11.6% | 33% | 59.4% | 82% | 93.4% | 96.8% | 99.7% | ~140 min | between the first and second residue | N=C(N)NCCCC[C@H](N)C(=O)NCCCC[C@H](N)C(=O)N[C@@H](CN)C(=O)N1CCC[C@H]1C(=O)N[C@@H](CCCNC(=N)N)C(=O)O [compound 3, Lys(hArg)-Dap-Pro-Arg] (H-K(hArg)[Dap]PR-OH) |  |  | 
 | 21.6% | 47.8% | 82.4% | 91.4% | 98.5% | 100% |  |  | N=C(N)NCCCC[C@H](N)C(=O)NCCCC[C@H](N)C(=O)N[C@@H](CCN)C(=O)N1CCC[C@H]1C(=O)N[C@@H](CCCNC(=N)N)C(=O)O [compound 4, Lys(hArg)-Dab-Pro-Arg] (H-K(hArg)[Dab]PR-OH) |  |  | 
 |  |  |  |  |  |  |  |  | ATWLPPR [A7R, reference compound] | 61.2% | 76.9% | 85.5%
